Experimental data as given in patent publication US20190307754A1, “PDE9 INHIBITORS FOR TREATMENT OF PERIPHERAL DISEASES” (IMARA, INC., priority 2016, published 2019).

Assays:
PDE1 = PDE1 inhibition assay; format: biochemical
Procedure: Reactions were initiated by addition of the cyclic nucleotide substrate, and reactions were allowed to proceed for 1 h at room temperature before being terminated through mixing with 20 μL (0.2 mg) yttrium silicate SPA beads (PerkinElmer).

[1] = Plasma, brain and eye exposure in C57Bl/6J mice; format: in vivo; details: for concentration at 30 min: male, C57Bl/6J, mouse, plasma, oral, gavage, Day 5, 30 minutes after dosing
Procedure: The exposure of both compounds was also evaluated in the plasma, brain, and eye. […] During the treatment period all animals were assessed for contextual fear conditioning and a subset of 7 animals per group was evaluated for locomotor activity. On Day 5, plasma, brain, and eye tissue were collected 30 minutes after dosing from 3 animals per treated group to measure concentrations of test item.

in vivo = format: in vivo; details: rat, in vivo, 1000 mg/kg; read-out: plasma exposure (AUC0-24)
Text: (§1) The safety pharmacology assessment of Compound P3.1 included an in vitro hERG assay, neurofunctional and respiratory studies in rats, and a cardiovascular study in beagle dogs.
(§2) The death was considered test article related. […]

rat = experiment: in vivo; format: in vivo
Text: as §1, §2

[2] = Plasma protein binding, monkey; format: in vitro ADME; details: read-out: mean plasma fraction bound (converted)
[3] = target: T1, MDR1 (human P-gp) efflux transporter (Homo sapiens, UniProt P08183); experiment: Bi-directional permeability across MDCK-MDR1 cell monolayer; format: in vitro ADME
T1 construct: expressed in transfected cells; host or cells: MDCK-MDR1 cells
T1 sequence (P08183 whole entry): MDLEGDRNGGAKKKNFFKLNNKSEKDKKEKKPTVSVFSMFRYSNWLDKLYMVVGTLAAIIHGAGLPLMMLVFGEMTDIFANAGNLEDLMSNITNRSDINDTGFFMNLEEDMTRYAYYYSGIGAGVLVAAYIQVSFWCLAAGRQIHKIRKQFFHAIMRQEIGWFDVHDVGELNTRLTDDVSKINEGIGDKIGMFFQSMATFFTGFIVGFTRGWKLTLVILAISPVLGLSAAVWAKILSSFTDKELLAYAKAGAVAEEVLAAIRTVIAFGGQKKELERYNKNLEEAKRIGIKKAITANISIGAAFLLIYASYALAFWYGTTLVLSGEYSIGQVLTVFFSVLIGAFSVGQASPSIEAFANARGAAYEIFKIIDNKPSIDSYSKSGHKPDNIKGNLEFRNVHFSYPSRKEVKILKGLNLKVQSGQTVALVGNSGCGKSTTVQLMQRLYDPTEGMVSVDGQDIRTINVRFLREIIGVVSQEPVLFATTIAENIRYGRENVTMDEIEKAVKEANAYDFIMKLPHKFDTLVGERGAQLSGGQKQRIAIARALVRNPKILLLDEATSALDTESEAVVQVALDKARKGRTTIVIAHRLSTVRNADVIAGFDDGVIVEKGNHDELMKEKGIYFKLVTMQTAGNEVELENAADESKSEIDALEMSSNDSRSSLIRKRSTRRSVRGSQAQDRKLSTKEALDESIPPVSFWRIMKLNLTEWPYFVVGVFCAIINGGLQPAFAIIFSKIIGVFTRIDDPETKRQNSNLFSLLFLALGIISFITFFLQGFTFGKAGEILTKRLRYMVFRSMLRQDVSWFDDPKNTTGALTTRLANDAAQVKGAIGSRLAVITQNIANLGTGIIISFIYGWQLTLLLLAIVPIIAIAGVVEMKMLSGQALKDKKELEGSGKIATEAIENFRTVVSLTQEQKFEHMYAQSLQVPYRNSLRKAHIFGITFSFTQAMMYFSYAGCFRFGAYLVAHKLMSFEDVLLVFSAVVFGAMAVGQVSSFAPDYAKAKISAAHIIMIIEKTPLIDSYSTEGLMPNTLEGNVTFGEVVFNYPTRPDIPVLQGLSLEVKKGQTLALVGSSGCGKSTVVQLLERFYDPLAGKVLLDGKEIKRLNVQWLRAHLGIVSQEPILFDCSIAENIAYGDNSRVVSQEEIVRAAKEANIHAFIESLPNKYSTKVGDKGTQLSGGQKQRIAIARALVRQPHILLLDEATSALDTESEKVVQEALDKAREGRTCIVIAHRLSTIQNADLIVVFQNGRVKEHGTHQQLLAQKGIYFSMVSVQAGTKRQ

C[C@@H]1CN(Cc2ncccn2)C[C@H]1c1cn2c(C3CCOCC3)ncc2c(=O)[nH]1 (single isomer, unassigned) [Compound P3.1]
IC50 (PDE1): 3000 nM
eye tissue level relative to AF27873 ([1]; 10 and 30 mg/kg/day): 3 fold lower
concentration at 30 min ([1]; 10 mg/kg/day): 3.84 µM
concentration at 30 min ([1]; 30 mg/kg/day): 9.91 µM
plasma to brain ratio ([1]; repeated administration): approximately 14
AUC(0-t) (in vivo): > 500 µg·h/mL
mortality (rat; 1000 mg/kg, approximately 4.8 hours after dosing): One male rat was found dead
exposure relative to anticipated efficacious dose (rat; rat, in vivo): approximately 48 fold
respiratory functions (rat; rat, in vivo, po, 1000 mg/kg): transient increases in respiratory rate and tidal volume
fraction unbound [2]: 0.814
MDR1 efflux transporter substrate [3]: strong MDR1 (human P-gp) efflux transporter substrate
